Source: article PMC5666756, “Fascaplysin Exerts Anti-Cancer Effects through the Downregulation of Survivin and HIF-1α and Inhibition of VEGFR2 and TRKA” (International Journal of Molecular Sciences, 2017)
pIC50: −log10 of the molar value.

Tests used:
Format in all cases: biochemical
[1] = target: T1, TRKA (tropomyosin-related kinase A) (Homo sapiens, UniProt P04629); assay: radiometric kinase assay ([γ-33P]ATP), IC50 at several ATP concentrations, Lineweaver-Burk
T1 construct: gene NTRK1; recombinant human cytoplasmic domain (aa 441–796), C-terminal His-tagged

[2] = target: T2, VEGFR2 (vascular endothelial growth factor receptor 2) (Homo sapiens, UniProt P35968); assay: as above
T2 construct: gene KDR
Excerpt: radiometric kinase assay ([γ-33P]ATP), IC50 at several ATP concentrations, Lineweaver-Burk on VEGFR2 (vascular endothelial growth factor receptor 2) | fascaplysin is noncompetitive with respect to ATP against TRKA and VEGFR2

[3] = target: T3, VEGFR3 (Homo sapiens, UniProt P35916); assay: high-throughput kinase screening assay (IC50, Figure S4)
T3 construct: gene FLT4

Measured: pIC50

T2 sequence (P35968 789-1356): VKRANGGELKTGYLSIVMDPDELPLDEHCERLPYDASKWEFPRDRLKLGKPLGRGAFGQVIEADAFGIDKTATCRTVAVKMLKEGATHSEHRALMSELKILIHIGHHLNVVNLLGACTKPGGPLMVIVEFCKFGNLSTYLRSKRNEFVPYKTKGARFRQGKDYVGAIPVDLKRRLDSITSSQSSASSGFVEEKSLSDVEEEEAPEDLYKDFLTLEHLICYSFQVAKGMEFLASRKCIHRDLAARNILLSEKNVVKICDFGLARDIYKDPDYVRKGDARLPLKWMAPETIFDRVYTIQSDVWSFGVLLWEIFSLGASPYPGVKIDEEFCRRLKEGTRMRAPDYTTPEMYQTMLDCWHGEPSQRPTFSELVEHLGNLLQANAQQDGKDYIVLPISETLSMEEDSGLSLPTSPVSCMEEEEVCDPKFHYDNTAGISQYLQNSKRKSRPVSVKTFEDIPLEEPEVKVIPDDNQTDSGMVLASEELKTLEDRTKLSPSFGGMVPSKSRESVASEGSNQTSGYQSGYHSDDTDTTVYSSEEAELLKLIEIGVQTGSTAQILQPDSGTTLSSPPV
T1 sequence (P04629 441-796): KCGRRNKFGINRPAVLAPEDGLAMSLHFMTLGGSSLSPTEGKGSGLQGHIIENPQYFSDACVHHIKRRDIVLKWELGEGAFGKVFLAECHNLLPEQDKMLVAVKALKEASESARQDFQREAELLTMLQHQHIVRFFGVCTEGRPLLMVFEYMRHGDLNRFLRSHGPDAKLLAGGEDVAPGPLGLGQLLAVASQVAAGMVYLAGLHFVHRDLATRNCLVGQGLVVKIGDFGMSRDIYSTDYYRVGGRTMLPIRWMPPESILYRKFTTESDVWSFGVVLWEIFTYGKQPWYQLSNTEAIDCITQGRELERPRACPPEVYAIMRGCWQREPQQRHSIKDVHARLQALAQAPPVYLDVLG
T3 sequence (P35916 25-1363): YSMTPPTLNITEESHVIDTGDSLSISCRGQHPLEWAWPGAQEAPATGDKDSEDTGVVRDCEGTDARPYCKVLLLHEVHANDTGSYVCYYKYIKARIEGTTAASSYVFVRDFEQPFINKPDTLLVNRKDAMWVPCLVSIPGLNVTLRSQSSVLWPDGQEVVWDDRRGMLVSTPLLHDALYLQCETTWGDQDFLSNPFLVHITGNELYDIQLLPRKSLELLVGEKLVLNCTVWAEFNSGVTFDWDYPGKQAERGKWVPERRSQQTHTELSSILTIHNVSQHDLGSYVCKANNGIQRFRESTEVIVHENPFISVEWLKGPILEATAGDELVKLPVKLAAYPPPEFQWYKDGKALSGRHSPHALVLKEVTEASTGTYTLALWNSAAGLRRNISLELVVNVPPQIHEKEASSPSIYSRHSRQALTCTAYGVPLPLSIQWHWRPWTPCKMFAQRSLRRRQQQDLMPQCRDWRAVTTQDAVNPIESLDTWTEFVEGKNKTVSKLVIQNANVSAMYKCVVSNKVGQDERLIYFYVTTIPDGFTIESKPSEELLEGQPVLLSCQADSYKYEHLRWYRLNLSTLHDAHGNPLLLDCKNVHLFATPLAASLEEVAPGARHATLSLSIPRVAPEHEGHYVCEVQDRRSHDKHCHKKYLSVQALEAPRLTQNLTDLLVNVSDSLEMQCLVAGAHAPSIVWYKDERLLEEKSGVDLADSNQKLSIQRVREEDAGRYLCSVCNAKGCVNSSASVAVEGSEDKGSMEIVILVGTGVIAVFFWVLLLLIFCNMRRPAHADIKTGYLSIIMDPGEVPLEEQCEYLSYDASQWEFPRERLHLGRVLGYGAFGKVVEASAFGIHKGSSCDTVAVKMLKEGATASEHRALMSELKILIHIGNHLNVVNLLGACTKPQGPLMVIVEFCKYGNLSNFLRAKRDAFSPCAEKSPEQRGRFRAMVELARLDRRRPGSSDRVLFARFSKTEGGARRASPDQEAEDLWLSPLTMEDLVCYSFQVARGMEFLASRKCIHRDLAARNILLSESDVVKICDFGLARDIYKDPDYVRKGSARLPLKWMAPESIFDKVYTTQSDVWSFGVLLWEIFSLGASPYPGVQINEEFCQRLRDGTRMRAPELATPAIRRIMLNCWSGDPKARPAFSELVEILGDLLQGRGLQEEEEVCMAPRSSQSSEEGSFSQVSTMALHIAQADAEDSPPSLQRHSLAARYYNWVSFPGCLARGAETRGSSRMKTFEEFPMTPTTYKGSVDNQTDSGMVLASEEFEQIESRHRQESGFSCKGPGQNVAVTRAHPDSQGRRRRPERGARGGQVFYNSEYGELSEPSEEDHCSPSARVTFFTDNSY

O=C1c2ccccc2-[n+]2ccc3c([nH]c4ccccc43)c21 [Fascaplysin]
5.52 to 5.70: all assays above
